Laboratory results from patent publication US9708377B2, “Scorpion toxin analogue and method for treating autoimmune diseases” (MONASH UNIVERSITY, priority 2013, dated 2017).

Tests used:
mKv1.1 channels = target: T1, mKv1.1 channels (Mus musculus, UniProt P16388); assay: Whole-cell patch-clamp block of Kv1.1 channels in L929 cells; assay type: cell-based; conditions: for current block on Kv1.1 channels: 100 nM, n=3, preliminary
T1 construct: expressed in transfected cells
Method: Cells and Cell Lines—L929 mouse fibroblast cells stably expressing mKv1.1 and mKv1.3 channels (Grissmer S et al., 1994) were maintained in DMEM medium (Invitrogen Corporation, Carlsbad, Calif., United States of America) supplemented with 100 IU/mL penicillin, 0.1 μg/mL streptomycin, 2 mM L-glutamine, 10% heat-inactivated foetal bovine serum, and 0.5 mg/mL G418 (EMD Chemicals, Gibbstown, N.J., United States of America).
Electrophysiological Analysis—Experiments were conducted at room temperature in the whole-cell configuration of the patch-clamp technique. A manual setup and an automated Port-a-patch setup (Nanion, North Brunswick, N.J., United States of America) were used in parallel, both linked to a HEKA EPC10USB amplifier. […] The bath solution contained (in mM): 160 NaCl, 4.5 KCl, 2 CaCl2, 1 MgCl2, 10 HEPES, pH 7.2, 300 mOsm. Kv currents were elicited every 30 s by 200-ms depolarising pulses from a holding potential of −80 mV to 40 mV. Kd values and Hill coefficients were determined by fitting the Hill equation to the reduction of peak current measured at 40 mV.

rat Kv1.3 channels = rat Kv1.3 channels (Rattus norvegicus, UniProt P15384); conditions: Lebrun B et al., 1997; read-out: IC50 inhibition of rat Kv1.3 channels; cited from earlier work
Sequence of rat Kv1.3 channels (P15384 whole entry): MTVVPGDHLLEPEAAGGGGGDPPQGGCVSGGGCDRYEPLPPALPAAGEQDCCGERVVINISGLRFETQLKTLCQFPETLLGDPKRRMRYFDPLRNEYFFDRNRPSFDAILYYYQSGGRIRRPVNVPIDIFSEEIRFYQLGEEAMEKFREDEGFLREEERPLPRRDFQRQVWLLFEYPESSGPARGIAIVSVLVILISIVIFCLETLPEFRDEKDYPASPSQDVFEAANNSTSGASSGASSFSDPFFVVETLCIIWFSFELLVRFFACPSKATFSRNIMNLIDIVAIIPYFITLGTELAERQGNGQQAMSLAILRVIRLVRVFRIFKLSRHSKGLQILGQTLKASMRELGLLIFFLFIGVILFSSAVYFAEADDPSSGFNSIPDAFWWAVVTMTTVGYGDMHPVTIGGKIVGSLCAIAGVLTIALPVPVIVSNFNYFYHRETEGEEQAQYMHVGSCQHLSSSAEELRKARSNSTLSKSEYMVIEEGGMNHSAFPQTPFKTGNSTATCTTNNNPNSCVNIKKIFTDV

[1] = test system: voltage-gated K+ channels; conditions: rat brain synaptosomal membranes; read-out: IC50 competition with 125I-kaliotoxin binding; cited from earlier work
[2] = test system: rat brain synaptosomal membranes; conditions: cited from earlier work
Kv1.1 = Kv1.1 (Homo sapiens, UniProt Q09470); conditions: Kv1.1 complex; cited from earlier work
Sequence of Kv1.1 (Q09470 whole entry): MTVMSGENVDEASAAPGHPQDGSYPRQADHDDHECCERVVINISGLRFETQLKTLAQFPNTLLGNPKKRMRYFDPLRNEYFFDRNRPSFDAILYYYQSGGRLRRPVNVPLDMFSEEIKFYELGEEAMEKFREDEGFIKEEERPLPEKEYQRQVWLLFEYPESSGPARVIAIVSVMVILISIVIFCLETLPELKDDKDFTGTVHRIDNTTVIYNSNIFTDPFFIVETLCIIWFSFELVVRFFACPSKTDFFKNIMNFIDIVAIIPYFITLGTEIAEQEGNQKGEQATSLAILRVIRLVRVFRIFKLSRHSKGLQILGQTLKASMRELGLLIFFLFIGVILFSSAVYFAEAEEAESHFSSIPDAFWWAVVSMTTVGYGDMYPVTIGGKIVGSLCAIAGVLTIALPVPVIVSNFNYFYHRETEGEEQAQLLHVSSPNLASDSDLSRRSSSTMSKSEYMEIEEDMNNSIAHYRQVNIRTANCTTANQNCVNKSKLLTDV

Kv1.3 [3] = target: T2, Kv1.3 (Rattus norvegicus, UniProt P15384); conditions: Kv1.3 complex; cited from earlier work
T2 sequence (P15384 whole entry): as the sequence (P15384 whole entry) above

Kv1.3 [4] = target: T2, Kv1.3; conditions: C-terminal amidation; cited from earlier work

T1 sequence (P16388 whole entry): as the sequence (Q09470 whole entry) above, with V9A, A14T, V202I, N213T, M449I, V471A, A476G, N482D counted along it

Compound	IC50 (mKv1.1 channels)	current block on Kv1.1 channels (mKv1.1 channels)	IC50 (rat Kv1.3 channels)	IC50 [1]	competition with 125I-apamin binding [2]	Gb (exp) experimental binding free energy (Kv1.1)	Gb (exp) experimental binding free energy (Kv1.3 [3])	affinity for Kv1.3 of amidated form compared to synthetic carboxylated form (Kv1.3 [4])
CSCC[C@@H]1NC(=O)[C@@H]2CSSC[C@H](NC(=O)[C@H](CO)NC(=O)[C@H](C)N)C(=O)N[C@@H](CCCNC(=N)N)C(=O)N[C@@H]([C@@H](C)O)C(=O)N3CCC[C@H]3C(=O)N[C@@H](CCCCN)C(=O)N[C@@H](CC(=O)O)C(=O)N[C@H]3CSSC[C@H](NC(=O)[C@H](CCCCN)NC(=O)[C@H](CCCNC(=N)N)NC(=O)[C@H](CC(N)=O)NC1=O)C(=O)N[C@@H](CCCCN)C(=O)N[C@H]1CSSC[C@H](NC(=O)[C@@H]4CCCN4C(=O)[C@H](CC(=O)O)NC(=O)[C@H](C)NC3=O)C(=O)N[C@@H](C)C(=O)N[C@@H](CCCCN)C(=O)N[C@@H](CCC(=O)O)C(=O)N[C@@H]([C@@H](C)O)C(=O)NCC(=O)N[C@@H](CSSC[C@@H](C(N)=O)NC(=O)[C@H](CCCNC(=N)N)NC(=O)[C@H](CC(N)=O)NC1=O)C(=O)N1CCC[C@H]1C(=O)N[C@@H](Cc1ccc(O)cc1)C(=O)NCC(=O)N[C@@H](CCCCN)C(=O)N2 [HsTX1[R14A]]	> 100 nM	10-16%						
CC[C@@H]1NC(=O)[C@@H]2CSSC[C@@H]3NC(=O)[C@H](CCCCN)NC(=O)[C@@H]4CSSC[C@H](NC(=O)[C@H](CC(=O)O)NC(=O)[C@H](CCCCN)NC(=O)[C@@H]5CCCN5C(=O)[C@H]([C@@H](C)O)NC(=O)[C@H](CCCNC(=N)N)NC(=O)[C@@H](NC(=O)[C@H](CO)NC(=O)[C@H](C)N)CSSC[C@H](NC(=O)[C@H](CCCCN)NC(=O)CNC(=O)[C@H](Cc5ccc(O)cc5)NC(=O)[C@@H]5CCCN5C(=O)[C@H](CSSC[C@@H](C(N)=O)NC(=O)[C@H](CCCNC(=N)N)NC(=O)[C@H](CC(N)=O)NC3=O)NC(=O)CNC(=O)[C@H]([C@@H](C)O)NC(=O)[C@H](CCC(=O)O)NC(=O)[C@H](CCCCN)NC1=O)C(=O)N[C@@H](CCSC)C(=O)N[C@@H](CC(N)=O)C(=O)N[C@@H](CCCNC(=N)N)C(=O)N[C@@H](CCCCN)C(=O)N4)C(=O)N[C@@H](C)C(=O)N[C@@H](CC(=O)O)C(=O)N1CCC[C@H]1C(=O)N2 [HsTX1[R14Abu], ASCRTPKDCADPCXKETGCPYGKCMNRKCKCNRC]	> 100 nM	15-20%						
ASCRTPKDCADPCRKETGCPYGKCMNRKCKCNRC [HsTX1]			~0.012 nM	~0.001 nM	did not compete	-11.1 ± 0.1 kcal/mol	-14.9 ± 0.2 kcal/mol	five-fold greater affinity for Kv1.3
